Laboratory results taken from patent US12121522B2, “Methods of treating cancer with an mTOR inhibitor” (Revolution Medicines, Inc., priority 2022, dated 2024).

System: mTORC2 activity (phosphorylation of Akt at Ser473)
Experiment: Cellular selectivity mTORC1 over mTORC2 (p4EBP1 vs pAkt)
Type: cell-based, human
Excerpt: The in vitro profile of RMC-5552 was characterized using standard biochemical and cellular assays to determine the mode of interaction with mTORC1 and mTORC2. The effect of RMC-5552 on established cellular readouts for mTORC1 activity (including phosphorylation of P70S6K at Thr389 and 4EBP1 at Thr37/46), mTORC2 activity (including phosphorylation of Akt at Ser473), and cellular proliferation was monitored.
RMC-5552 binds to the intracellular protein FKBP12 and engages the FRB allosteric site and the ATP binding site on the mTORC1 complex, leading to inhibition of mTOR kinase activity.

CO[C@H]1C[C@@H]2CC[C@@H](C)[C@@](O)(O2)C(=O)C(=O)N2CCCC[C@H]2C(=O)O[C@H]([C@H](C)C[C@@H]2CC[C@@H](OC(=O)NCCOCCOCCOCCOCCOCCOCCOCCOCCC(=O)NCCS(=O)(=O)c3ccc(C(=O)N4CCOc5ccc(-c6ccc(N)nc6)cc5C4)c(C)c3F)[C@H](OC)C2)C[C@@H](O)[C@H](C)/C=C(\C)[C@@H](O)[C@@H](OC)C(=O)[C@H](C)C[C@H](C)/C=C/C=C/C=C/1C [RMC-6272]
selective inhibition of mTORC1 over mTORC2: > 10 fold
